17 compounds from ChEMBL document CHEMBL1138438, “Structural-activity relationship study of highly-functionalized imidazolines as potent inhibitors of nuclear transcription factor-kappaB mediated IL-6 production” (Bioorg Med Chem, 2009) can be followed below.

Each structure is given as a SMILES string. Activity calls are given as the source filed them. The rule behind the calls is not given here.

Data set [1] in a line: Inhibition of NF-kappaB-mediated gene transcription expressed in TNF-alpha-stimulated human HeLa cells for 30 mins before TNFalpha challenge measured after 8 hrs by steady-glo luciferase reporter gene assay. The format is cell-based. (Reporter assays use an easily measured gene product as a stand-in for the process of interest.)
A further data set relates to Blood. Nature of the data set: Antiinflammatory activity in human whole blood assessed as inhibition of IL-1-beta-stimulated IL6 production preincubated 2 hrs before IL1-beta challenge measured after 18 hrs by ELISA. It counts as functional, tissue-based.
A further data set deals with HeLa. Nature of the data set: Stimulation of NF-kappaB-mediated gene transcription expressed in human HeLa cells for 30 mins before TNFalpha challenge measured after 8 hrs by steady-glo luciferase reporter gene assay. It counts as cell-based.
Data set [2] is described as follows: Cytotoxicity against human 184B5 cells after 24 hrs by MTS assay. The format is cell-based. On the technique in general: Tetrazolium dyes change colour on reduction, which living cells bring about.

Regarding `CCOC(=O)[C@]1(c2ccccc2)N=C(c2ccccc2)N(Cc2ccc(Br)cc2)[C@@H]1c1ccccc1` (racemic), it took 2.7 µM to reach a half-maximal effect in data set [1] (EC50). The Activity entry in the data set with Blood is “Dose-dependent effect”. Moreover, the IC50 (usually the concentration that inhibits the measured activity by half) with Blood (read-out: IC50) is 0.5 µM; with Blood (read-out: Log IC50 (converted)), 2 µM. Besides, the outcome in the data set on HeLa was inactive. In data set [2], the CC50 (commonly the concentration that lowers cell viability or growth by half) at 24 h is above 10 µM.
Consider `CCOC(=O)[C@]1(c2ccccc2)N=C(c2ccccc2)N(Cc2ccco2)[C@@H]1c1ccccc1` (racemic), for which the EC50 (as a rule, the concentration at which the effect is half-maximal) in data set [1] was 5.5 µM. In addition, in the data set with Blood, the Activity entry is “Dose-dependent effect”. Further, the IC50 in the data set on Blood (read-out: IC50) is 1.3 µM; in the data set on Blood (read-out: Log IC50 (converted)) it was 1.29 µM. The outcome in the data set on HeLa was inactive. This compound also gave a CC50 at 24 h in data set [2] above 10 µM.
Turning to `CCOC(=O)[C@]1(c2ccccc2)N=C(c2ccccc2)N(Cc2ccccc2)[C@@H]1c1ccncc1` (racemic), the EC50 in data set [1] is above 20 µM. In the data set on Blood, the Activity entry was “Dose-dependent effect”. The IC50 is 9.4 µM with Blood (read-out: IC50) and 9.33 µM in the data set with Blood (read-out: Log IC50 (converted)). Further, the outcome in the data set on HeLa was inactive. The compound further showed a CC50 at 24 h in data set [2] above 10 µM.
As to `CCOC(=O)[C@]1(c2ccccc2)N=C(c2ccccc2)N(Cc2ccc(F)cc2)[C@@H]1c1ccccc1` (racemic), the response in data set [1] was half-maximal at 5.2 µM (EC50). For the same compound, in the data set on Blood, the Activity entry is “Dose-dependent effect”. In addition, the IC50 with Blood (read-out: IC50) and in the data set with Blood (read-out: Log IC50 (converted)) was 1.2 µM in each case. The outcome with HeLa was inactive. Besides, in data set [2], the CC50 at 24 h is above 10 µM.
With `CCOC(=O)[C@]1(c2ccccc2)N=C(c2ccccc2)N(Cc2ccc(C(F)(F)F)cc2)[C@@H]1c1ccccc1` (racemic), the EC50 in data set [1] worked out at 6.7 µM. Besides, the Activity entry in the data set with Blood was “Dose-dependent effect”. Further, the IC50 in the data set on Blood (read-out: IC50) was 1.5 µM; with Blood (read-out: Log IC50 (converted)), 1.48 µM. For the same compound, the outcome in the data set on HeLa was inactive. In data set [2], this compound yielded a CC50 at 24 h above 10 µM.
In turn, `CCCOC(=O)[C@]1(c2ccccc2)N=C(c2ccccc2)N(Cc2ccccc2)[C@@H]1c1ccccc1` (racemic) yielded an EC50 in data set [1] of 2.3 µM. Moreover, the Activity entry in the data set on Blood was “Dose-dependent effect”. Also, the IC50 in the data set on Blood (read-out: IC50) was 1.9 µM; in the data set with Blood (read-out: Log IC50 (converted)), 1.95 µM. Further, in the data set with HeLa, the outcome was inactive. In data set [2], this compound had a CC50 at 24 h above 10 µM.
In turn, `CCOC(=O)[C@]1(c2ccccc2)N=C(c2ccccc2)N[C@@H]1c1ccccc1` (racemic) came in with an EC50 in data set [1] of 116 µM. Further, the Activity result in the data set on Blood is “Dose-dependent effect”. The IC50 in the data set with Blood (read-out: IC50) is above 20 µM; with Blood (read-out: Log IC50 (converted)), 34.7 µM. In addition, the result in the data set on HeLa was inactive. In addition, in data set [2], the CC50 at 24 h was above 10 µM.
`CCOC(=O)[C@]1(c2ccccc2)N=C(c2ccccc2)N(Cc2ccccc2)[C@@H]1c1ccc([N+](=O)[O-])cc1` (racemic) displayed an EC50 in data set [1] of 3.4 µM. Moreover, in the data set on Blood, the Activity result is “Dose-dependent effect”. The figures for the IC50 in the data set on Blood (read-out: IC50) and with Blood (read-out: Log IC50 (converted)) were 0.5 µM and 0.537 µM, respectively. Besides, in the data set with HeLa, the result was inactive. This compound also registered a 50% cytotoxic concentration (CC50) at 24 h in data set [2] above 10 µM.
Consider `CCOC(=O)[C@]1(c2ccccc2)N=C(c2ccccc2)N(Cc2ccc(OC)cc2)[C@@H]1c1ccccc1` (racemic), for which the EC50 in data set [1] was 5 µM. The Activity result in the data set on Blood is “Dose-dependent effect”. In addition, the IC50 was 1.4 µM in the data set on Blood (read-out: IC50) and 1.38 µM in the data set on Blood (read-out: Log IC50 (converted)). The result in the data set with HeLa was inactive. Also, the half-maximal cytotoxic concentration (CC50) at 24 h in data set [2] was above 10 µM.
Turning to `CCOC(=O)[C@]1(c2ccccc2)N=C(c2ccccc2)N(Cc2ccccc2)[C@@H]1c1ccc(C(F)(F)F)cc1` (racemic), the EC50 in data set [1] came out at 1.4 µM. Besides, the Activity result in the data set on Blood is “Dose-dependent effect”. Besides, the IC50 with Blood (read-out: IC50) was 0.8 µM; in the data set on Blood (read-out: Log IC50 (converted)) it was 0.851 µM. In addition, the result with HeLa was inactive. In addition, in data set [2], the CC50 at 24 h is above 10 µM.
`CCOC(=O)[C@]1(c2ccccc2)N=C(c2ccccc2)N(Cc2ccccc2)[C@@H]1c1ccc(N)cc1` (racemic) had an EC50 in data set [1] of 10.4 µM. Moreover, the Activity entry with Blood was “Dose-dependent effect”. Further, the figures for the IC50 in the data set with Blood (read-out: IC50) and in the data set with Blood (read-out: Log IC50 (converted)) were 0.5 µM and 0.457 µM, respectively. Also, in the data set on HeLa, the outcome was inactive. The CC50 at 24 h in data set [2] is above 10 µM.
On to `CCOC(=O)[C@]1(c2ccccc2)N=C(c2ccccc2)N(Cc2ccc(Cl)cc2)[C@@H]1c1ccccc1` (racemic), for which, in data set [1], the response was half-maximal at 4.2 µM (EC50). For the same compound, the Activity entry in the data set on Blood is “Dose-dependent effect”. Moreover, the results for the IC50 in the data set with Blood (read-out: IC50) and in the data set on Blood (read-out: Log IC50 (converted)) were 1.6 µM and 1.58 µM, respectively. For the same compound, the outcome in the data set on HeLa was inactive. The same compound came in with a half-maximal cytotoxic concentration (CC50) at 24 h in data set [2] above 10 µM.
`CCOC(=O)[C@]1(c2ccccc2)N=C(c2ccccc2)N(S(=O)(=O)c2ccc(C)cc2)[C@@H]1c1ccccc1` (racemic) gave an EC50 in data set [1] of 36.1 µM. Moreover, the Activity result in the data set with Blood is “Dose-dependent effect”. In addition, the results for the IC50 in the data set on Blood (read-out: IC50) and in the data set on Blood (read-out: Log IC50 (converted)) were 6.6 µM and 6.61 µM, respectively. The outcome in the data set with HeLa was inactive. This compound also gave a CC50 at 24 h in data set [2] above 10 µM.
Turning to `CC(C)OC(=O)[C@]1(c2ccccc2)N=C(c2ccccc2)N(Cc2ccccc2)[C@@H]1c1ccccc1` (racemic), in data set [1], it took 3.5 µM to reach a half-maximal effect (EC50). Further, in the data set on Blood, the Activity entry was “Dose-dependent effect”. Further, the results for the concentration for half-maximal inhibition (IC50) in the data set on Blood (read-out: IC50) and with Blood (read-out: Log IC50 (converted)) were 1.9 µM and 1.95 µM, respectively. The result with HeLa was inactive. Also, the CC50 at 24 h in data set [2] was above 10 µM.
Compound `O=C(OCc1ccccc1)[C@]1(c2ccccc2)N=C(c2ccccc2)N(Cc2ccccc2)[C@@H]1c1ccccc1` (racemic) gave an EC50 in data set [1] of 3.5 µM. Also, in the data set on Blood, the Activity entry was “Dose-dependent effect”. In addition, the half-maximal inhibitory concentration (IC50) in the data set on Blood (read-out: IC50) is 5.9 µM; with Blood (read-out: Log IC50 (converted)), 5.89 µM. Moreover, the result in the data set on HeLa was inactive. The 50% cytotoxic concentration (CC50) at 24 h in data set [2] was above 10 µM.
In the case of `COC(=O)[C@]1(Cc2ccccc2)N=C(c2ccccc2)N(Cc2ccccc2)[C@@H]1c1ccccc1` (racemic), the EC50 in data set [1] came to 5.3 µM. The Activity result with Blood was “Dose-dependent effect”. For the same compound, the IC50 in the data set with Blood (read-out: IC50) was 4.1 µM; with Blood (read-out: Log IC50 (converted)) it was 4.07 µM. Also, the outcome in the data set on HeLa was inactive. This compound registered a CC50 at 24 h in data set [2] above 10 µM.
The compound `COC(=O)[C@]1(C)N=C(c2ccccc2)N(Cc2ccccc2)[C@@H]1c1ccccc1` (racemic) registered an EC50 in data set [1] above 20 µM. Further, the Activity entry in the data set with Blood is “Dose-dependent effect”. For the same compound, the IC50 with Blood (read-out: IC50) was 3 µM; in the data set with Blood (read-out: Log IC50 (converted)), 2.95 µM. For the same compound, the result in the data set on HeLa was inactive. This compound gave a cytotoxic concentration (CC50) at 24 h in data set [2] above 10 µM.
